Measured values: patent US6352977B1, “Substituted β-alanines” (Aventis Pharma Limited, priority 1998, dated 2002)

| melting point [°C] | Compound |
| --- | --- |
| 183 to 187 | COc1cc(CC(=O)N(C)CC(=O)N(CCC(=O)O)Cc2ccc(OC)c(OC)c2)ccc1NC(=O)Nc1ccccc1C |
| 73 to 76 | COc1cc(CC(=O)N(C)CC(=O)N(CCCN2CCCC2=O)CCC(=O)O)ccc1NC(=O)Nc1ccccc1C |
